This test concerns the target T1, oestrogen receptor (ER) (Homo sapiens, UniProt P03372).
T1 construct: These MVLN cells express, along with the functional oestrogen receptor (ER), a reporter construct; endogenous in cells; host or cells: MVLN cells (MCF7 derivative carrying a luciferase reporter construct)
T1 sequence (P03372 1-595): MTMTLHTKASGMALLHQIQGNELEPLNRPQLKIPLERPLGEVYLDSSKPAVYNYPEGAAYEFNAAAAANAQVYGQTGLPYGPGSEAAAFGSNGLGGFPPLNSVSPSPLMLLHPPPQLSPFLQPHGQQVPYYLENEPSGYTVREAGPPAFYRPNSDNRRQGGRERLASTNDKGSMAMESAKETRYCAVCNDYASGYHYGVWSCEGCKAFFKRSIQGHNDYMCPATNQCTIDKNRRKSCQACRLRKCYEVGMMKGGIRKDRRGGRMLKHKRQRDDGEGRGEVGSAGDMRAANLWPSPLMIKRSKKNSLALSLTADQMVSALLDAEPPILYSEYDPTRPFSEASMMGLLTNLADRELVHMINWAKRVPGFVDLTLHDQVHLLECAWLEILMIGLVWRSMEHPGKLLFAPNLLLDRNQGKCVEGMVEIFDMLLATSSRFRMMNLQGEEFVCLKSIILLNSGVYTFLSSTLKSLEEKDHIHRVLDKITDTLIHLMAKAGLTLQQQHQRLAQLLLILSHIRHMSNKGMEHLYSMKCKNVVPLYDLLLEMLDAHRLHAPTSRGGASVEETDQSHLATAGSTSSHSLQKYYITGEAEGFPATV
The test is described as follows: Anti-oestrogenic action in MVLN cells (inhibition of estradiol-induced luciferase). It is filed as cell-based. The settings on record: inhibition of estradiol-induced luciferase signal, value of Ex. 44 is a mean value, read-out: Antioestrogenic action in vitro: MVLN transactivation antagonism IC50. In a few lines:
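Inhibition of estradiol-driven luciferase expression was measured with compounds co-applied alongside oestrogen. Reporter system: MCF7-derived MVLN cells expressing endogenous functional ER and an ER-responsive luciferase construct.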

`O=S(=O)(CCCCNCCCCCCC1=C(c2ccc(F)cc2)CCCc2cc(O)ccc21)CCCC(F)(F)F` [Example 77, 8-(4-Fluorophenyl)-9-[6-({4-[(4,4,4-trifluorobutyl)sulphonyl]butyl}amino)hexyl]-6,7-dihydro-5H-benzo[7]annulen-3-ol]: the IC50 came out at 10 nM.

As for `CN(CCCCCCC1=C(c2ccc(F)cc2)CCCc2cc(O)ccc21)CCCSCCCC(F)(F)C(F)(F)F` [Example 78, 8-(4-Fluorophenyl)-9-[6-(methyl{3-[(4,4,5,5,5-pentafluoropentyl)sulphanyl]propyl}amino)hexyl]-6,7-dihydro-5H-benzo[7]annulen-3-ol], the IC50 is 31 nM.

In the case of `CN(CCCCCCC1=C(c2ccc(F)cc2)CCCc2cc(O)ccc21)CCCS(=O)(=O)CCCCC(F)(F)C(F)(F)F` [Example 79, 8-(4-Fluorophenyl)-9-[6-(methyl{3-[(5,5,6,6,6-pentafluorohexyl)sulphonyl]propyl}amino)hexyl]-6,7-dihydro-5H-benzo[7]annulen-3-ol], the IC50 came to 17 nM.

As to `O=C(CN(CCCCCCC1=C(c2ccc(F)cc2)CCCc2cc(O)ccc21)CCCCS(=O)(=O)CCCC(F)(F)F)OCc1ccccc1` [Example 81, Benzyl-N-{6-[8-(4-fluorophenyl)-3-hydroxy-6,7-dihydro-5H-benzo[7]annulen-9-yl]hexyl}-N-{4-[(4,4,4-trifluorobutyl)sulphonyl]butyl}glycinate], the IC50 was 40 nM.

Regarding `COC(=O)CN(CCCCCCC1=C(c2ccc(F)cc2)CCCc2cc(O)ccc21)CCCCS(=O)(=O)CCCC(F)(F)F` [Example 82, Methyl-N-{6-[8-(4-fluorophenyl)-3-hydroxy-6,7-dihydro-5H-benzo[7]annulen-9-yl]hexyl}-N-{4-[(4,4,4-trifluorobutyl)sulphonyl]butyl}glycinate], the IC50 was 13 nM.

As for `COC(=O)CCN(CCCCCCC1=C(c2ccc(F)cc2)CCCc2cc(O)ccc21)CCCCS(=O)(=O)CCCC(F)(F)F` [Example 83, Methyl-N-{6-[8-(4-fluorophenyl)-3-hydroxy-6,7-dihydro-5H-benzo[7]annulen-9-yl]hexyl}-N-{4-[(4,4,4-trifluorobutyl)sulphonyl]butyl}-beta-alaninate], the IC50 turned out to be 13 nM.

For the compound `O=S(=O)(CCCN(CCCCCCC1=C(c2ccc(F)cc2)CCCc2c1ccc(O)c2F)CC(F)(F)F)CCCC(F)(F)C(F)(F)F` [Example 84, 4-Fluoro-8-(4-fluorophenyl)-9-{6-[{3-[(4,4,5,5,5-pentafluoropentyl)sulphonyl]propyl}(2,2,2-trifluoroethyl)amino]hexyl}-6,7-dihydro-5H-benzo[7]annulen-3-ol], the IC50 was determined as 252 nM.

`O=S(=O)(CCCN(CCF)CCCCCCC1=C(c2ccc(F)cc2)CCCc2c1ccc(O)c2F)CCCC(F)(F)C(F)(F)F` [Example 85, 4-Fluoro-9-{6-[(2-fluoroethyl){3-[(4,4,5,5,5-pentafluoropentyl)sulphonyl]propyl}amino]hexyl}-8-(4-fluorophenyl)-6,7-dihydro-5H-benzo[7]annulen-3-ol]: the IC50 worked out at 51 nM.

In the case of `CN(CCCCCCC1=C(c2ccc(F)cc2)CCCc2c1ccc(O)c2F)CCCSCCCC(F)(F)C(F)(F)F` [Example 86, 4-Fluoro-8-(4-fluorophenyl)-9-[6-(methyl{3-[(4,4,5,5,5-pentafluoropentyl)sulphanyl]propyl}amino)hexyl]-6,7-dihydro-5H-benzo[7]annulen-3-ol], the IC50 was 25 nM.

With `CN(CCCCCCC1=C(c2ccc(F)cc2)CCCc2c1ccc(O)c2F)CCCS(=O)(=O)CCCCC(F)(F)F` [Example 87, 4-Fluoro-8-(4-fluorophenyl)-9-[6-(methyl{3-[(5,5,5-trifluoropentyl)sulphonyl]propyl}amino)hexyl]-6,7-dihydro-5H-benzo[7]annulen-3-ol], the IC50 stood at 10 nM.

In the case of `COC(=O)CCCN(CCCCCCC1=C(c2ccc(F)cc2)CCCc2cc(O)ccc21)CCCCS(=O)(=O)CCCC(F)(F)F` [Example 88, Methyl-4-({6-[8-(4-fluorophenyl)-3-hydroxy-6,7-dihydro-5H-benzo[7]annulen-9-yl]hexyl}{4-[(4,4,4-trifluorobutyl)sulphonyl]butyl}amino)butanoate], the IC50 came to 24 nM.

Take `CC(=O)N(CCCCCCC1=C(c2ccc(F)cc2)CCCc2cc(O)ccc21)CCCCS(=O)(=O)CCCC(F)(F)F` [Example 89, N-{6-[8-(4-Fluorophenyl)-3-hydroxy-6,7-dihydro-5H-benzo[7]annulen-9-yl]hexyl}-N-{4-[(4,4,4-trifluorobutyl)sulphonyl]butyl}acetamide]: the IC50 stood at 54 nM.

For the compound `N#CCN(CCCCCCC1=C(c2ccc(F)cc2)CCCc2cc(O)ccc21)CCCCS(=O)(=O)CCCC(F)(F)F` [Example 90, ({6-[8-(4-Fluorophenyl)-3-hydroxy-6,7-dihydro-5H-benzo[7]annulen-9-yl]hexyl}{4-[(4,4,4-trifluorobutyl)sulphonyl]butyl}amino)acetonitrile], the IC50 worked out at 14 nM.

As for `CS(=O)(=O)N(CCCCCCC1=C(c2ccc(F)cc2)CCCc2cc(O)ccc21)CCCCS(=O)(=O)CCCC(F)(F)F` [Example 91, N-{6-[8-(4-Fluorophenyl)-3-hydroxy-6,7-dihydro-5H-benzo[7]annulen-9-yl]hexyl}-N-{4-[(4,4,4-trifluorobutyl)sulphonyl]butyl}methanesulphonamide], the IC50 was found to be 67 nM.

For `O=S(=O)(CCCCN(CCO)CCCCCCC1=C(c2ccc(F)cc2)CCCc2cc(O)ccc21)CCCC(F)(F)F` [Example 92, 8-(4-Fluorophenyl)-9-{6-[(2-hydroxyethyl){4-[(4,4,4-trifluorobutyl)sulphonyl]butyl}amino]hexyl}-6,7-dihydro-5H-benzo[7]annulen-3-ol], the IC50 stood at 5 nM.

In the case of `C[C@H](O)CN(CCCCCCC1=C(c2ccc(F)cc2)CCCc2cc(O)ccc21)CCCCS(=O)(=O)CCCC(F)(F)F` [Example 93, 8-(4-Fluorophenyl)-9-[6-([(2S)-2-hydroxypropyl]{4-[(4,4,4-trifluorobutyl)sulphonyl]butyl}amino)hexyl]-6,7-dihydro-5H-benzo[7]annulen-3-ol], the IC50 is 5 nM.

Turning to `O=C(O)CN(CCCCCCC1=C(c2ccc(F)cc2)CCCc2cc(O)ccc21)CCCCS(=O)(=O)CCCC(F)(F)F` [Example 94, N-{6-[8-(4-Fluorophenyl)-3-hydroxy-6,7-dihydro-5H-benzo[7]annulen-9-yl]hexyl}-N-{4-[(4,4,4-trifluorobutyl)sulphonyl]butyl}glycine], the half-inhibitory concentration (IC50) is 21 nM.

Consider `O=C(O)CCN(CCCCCCC1=C(c2ccc(F)cc2)CCCc2cc(O)ccc21)CCCCS(=O)(=O)CCCC(F)(F)F` [Example 95, N-{6-[8-(4-Fluorophenyl)-3-hydroxy-6,7-dihydro-5H-benzo[7]annulen-9-yl]hexyl}-N-{4-[(4,4,4-trifluorobutyl)sulphonyl]butyl}-beta-alanine], for which the IC50 came out at 19 nM.

As to `O=C(O)CCCN(CCCCCCC1=C(c2ccc(F)cc2)CCCc2cc(O)ccc21)CCCCS(=O)(=O)CCCC(F)(F)F` [Example 96, 4-({6-[8-(4-Fluorophenyl)-3-hydroxy-6,7-dihydro-5H-benzo[7]annulen-9-yl]hexyl}{4-[(4,4,4-trifluorobutyl)sulphonyl]butyl}amino)butanoic acid], the IC50 worked out at 21 nM.

A word on the IC50: it is the concentration that gives 50% inhibition.

(Values after US20130252890A1, “6,7-DIHYDRO-5H-BENZO[7]ANNULENE DERIVATIVES, PROCESS FOR PREPARATION THEREOF, PHARMACEUTICAL PREPARATIONS COMPRISING THEM, AND THE USE THEREOF FOR PRODUCTION OF MEDICAMENTS” (BAYER INTELLECTUAL PROPERTY GMBH, priority 2010, published 2013).)
